What all share (type): cell-based
Experiment [1] concerns the target human EGFR L858R and T790M double mutation (LT) (Homo sapiens (Human), UniProt P00533, L858R/T790M). Put plainly: Ba/F3-EGFR L858R/T790M cell anti-proliferative assay (CellTiter 96 MTS, 72 h).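 For all read-outs here: Ba/F3 cells carrying the EGFR L858R/T790M double mutant are able to grow without IL-3.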 Conditions: Ba/F3-EGFR L858R/T790M cells; for IC50: read-out: EGFR exon 21 L858R and T790M mutation IC50.
Description: An expression vector, pLVX-IRES puro (Clontech) coding for human EGFR L858R and T790M double mutation, was transfected into HEK293 cells by the Trans-Lentiviral ORF Packaging System (Thermo Scientific), to produce virus encoding EGFR L858R and T790M double mutations. […] Ba/F3 cells expressing EGFR L858R and T790M double mutation (named Ba/F3-EGFR L858R/T790M) can proliferate in the absence of IL-3. The anti-proliferative activity of compounds was determined as follows: BaF3-EGFR L858R/T790M cells seeded in 96 well plates (2500 cells/well) were treated with test compound (dissolved in DMSO) at a series of concentrations (4-fold dilution, top concentration: 10,000 nM). The plates were incubated for 72 h in a 37° C. incubator with 5% CO2, and the number of viable cells in each well were measured indirectly by CellTiter 96® Aqueous One Solution Cell Proliferation Assay (Promega; this assay is a colorimetric method for determining the number of viable cells through measurement of their metabolic activity by detection of enzymatic conversion of tetrazolium salts into blue formazan derivatives). Reagent (20 μL) was added into each well, and the plates were returned to the incubator for 2 h. The absorbance in each well was then measured at 490 nm using an Envision plate reader (Perkin Elmer).
Experiment [2] addresses human EGFR exon 20 insertion NPG (H773_V774insNPG) (Homo sapiens, UniProt P00533, INS773NPG, cells depend on it). Put plainly: Ba/F3-EGFR-Exon20-NPG cell anti-proliferative assay (CellTiter 96 MTS, 72 h). The settings on record: read-out: EGFR exon 20 NPG insertion IC50.
Description: Ba/F3 cells expressing EGFR exon 20 insertions (named Ba/F3-EGFR-Exon20-NPG or Ba/F3-EGFR-Exon20-ASV) can proliferate in the absence of IL-3. The anti-proliferative activity of compounds were determined as follows: BaF3-EGFR-Exon20 cells (NPG or ASV) seeded in 96 well plates (2500 cells/well) were treated with test compound (dissolved in DMSO) at a series of concentrations (4-fold dilution, top concentration: 10,000 nM). The plates were incubated for 72 h in a 37° C. incubator with 5% CO2, and the number of viable cells in each well were measured indirectly by CellTiter 96® Aqueous One Solution Cell Proliferation Assay (Promega) This assay is a colorimetric method for determining the number of viable cells through measurement of their metabolic activity by detection of enzymatic conversion of tetrazolium salts into blue formazan derivatives. Reagent (20 μL) was added into each well, and the plates were returned to the incubator for 2 h. The absorbance in each well was then measured at 490 nm using an Envision plate reader (Perkin Elmer).
Experiment [3] concerns the target Her2 exon 20 YVMA insertion (A775_G776ins YVMA) (Homo sapiens (Human), UniProt P04626, INS775YVMA). Put plainly: Ba/F3-Her2 Exon20 YVMA cell anti-proliferative assay (CellTiter 96 MTS, 72 h). The settings on record: Ba/F3-Her2 Exon20 YVMA cells. An excerpt:
Ba/F3 cells expressing Her2 Exon20 YVMA insertions (named Ba/F3-Her2 Exon20 YVMA) can proliferate in the absence of IL-3.

Experiment [4] deals with human EGFR E746-A750 deletion and T790M Mutation (DT) (Homo sapiens (Human), UniProt P00533, DEL746-750/T790M). Put plainly: Ba/F3-EGFR-Del/T790M cell anti-proliferative assay (CellTiter 96 MTS, 72 h). The settings on record: Ba/F3-EGFR-Del/T790M cells; for IC50: read-out: EGFR exon 19 deletion and T790M mutation IC50.
Chain of human EGFR E746-A750 deletion and T790M Mutation (DT) (P00533 other isoform, or with tags, fused parts or gaps T790M/del E746-A750): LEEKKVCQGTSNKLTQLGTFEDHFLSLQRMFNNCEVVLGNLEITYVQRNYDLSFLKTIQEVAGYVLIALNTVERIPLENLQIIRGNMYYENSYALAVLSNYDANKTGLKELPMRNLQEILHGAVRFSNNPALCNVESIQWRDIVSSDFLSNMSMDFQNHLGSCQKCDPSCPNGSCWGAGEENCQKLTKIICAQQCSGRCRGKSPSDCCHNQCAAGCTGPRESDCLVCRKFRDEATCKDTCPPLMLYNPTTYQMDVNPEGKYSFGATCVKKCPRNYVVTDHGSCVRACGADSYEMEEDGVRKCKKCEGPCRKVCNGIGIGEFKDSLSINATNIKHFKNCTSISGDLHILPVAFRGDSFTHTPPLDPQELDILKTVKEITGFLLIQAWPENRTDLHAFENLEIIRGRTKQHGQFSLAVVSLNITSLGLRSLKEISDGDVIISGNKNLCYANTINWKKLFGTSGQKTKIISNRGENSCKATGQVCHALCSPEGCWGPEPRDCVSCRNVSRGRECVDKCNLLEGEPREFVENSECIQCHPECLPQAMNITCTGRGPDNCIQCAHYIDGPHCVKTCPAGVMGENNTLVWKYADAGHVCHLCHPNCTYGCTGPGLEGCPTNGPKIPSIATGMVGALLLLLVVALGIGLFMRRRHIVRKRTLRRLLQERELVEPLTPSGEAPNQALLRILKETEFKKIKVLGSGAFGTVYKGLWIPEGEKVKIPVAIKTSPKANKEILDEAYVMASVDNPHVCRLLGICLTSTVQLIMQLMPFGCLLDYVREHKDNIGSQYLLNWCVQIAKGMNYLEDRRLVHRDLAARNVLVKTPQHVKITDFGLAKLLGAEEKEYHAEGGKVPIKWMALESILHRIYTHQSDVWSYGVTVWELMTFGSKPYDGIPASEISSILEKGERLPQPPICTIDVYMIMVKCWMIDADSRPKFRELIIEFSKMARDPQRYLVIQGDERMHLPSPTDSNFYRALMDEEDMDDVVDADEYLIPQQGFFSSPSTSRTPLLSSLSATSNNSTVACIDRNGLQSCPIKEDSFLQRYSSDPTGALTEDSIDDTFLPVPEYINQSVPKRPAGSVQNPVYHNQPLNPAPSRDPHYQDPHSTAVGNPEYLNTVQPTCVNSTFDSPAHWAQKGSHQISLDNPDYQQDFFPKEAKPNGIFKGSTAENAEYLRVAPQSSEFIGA
Description: An expression vector, pLVX-IRES puro (Clontech) coding for human EGFR E746-A750 deletion and T790M Mutation, was transfected into HEK293 cells by the Trans-Lentiviral ORF Packaging System (Thermo Scientific), to produce virus encoding EGFR exon 19 deletion and T790M mutations. […] Ba/F3 cells expressing EGFR E746-A750 deletion and T790M Mutation (named Ba/F3-EGFR-Del/T790M) can proliferate in the absence of IL-3. The anti-proliferative activity of compounds was determined as follows: BaF3-EGFR-Del/T790M cells seeded in 96 well plates (2500 cells/well) were treated with test compound (dissolved in DMSO) at a series of concentrations (4-fold dilution, top concentration: 10,000 nM). The plates were incubated for 72 h in a 37° C. incubator with 5% CO2, and the number of viable cells in each well were measured indirectly by CellTiter 96® Aqueous One Solution Cell Proliferation Assay (Promega; this assay is a colorimetric method for determining the number of viable cells through measurement of their metabolic activity by detection of enzymatic conversion of tetrazolium salts into blue formazan derivatives). Reagent (20 μL) was added into each well, and the plates were returned to the incubator for 2 h. The absorbance in each well was then measured at 490 nm using an Envision plate reader (Perkin Elmer).
In experiment [5] the target is human EGFR exon 20 insertion ASV (V769_D770insASV) (Homo sapiens (Human), UniProt P00533, INS769ASV). Nature of the experiment: Ba/F3-EGFR-Exon20-ASV cell anti-proliferative assay (CellTiter 96 MTS, 72 h).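 Note: Ba/F3 cells bearing the EGFR exon 20 ASV insertion, a line able to proliferate without IL-3.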 The settings on record: Ba/F3-EGFR-Exon20-ASV cells.
Chain of human EGFR exon 20 insertion ASV (V769_D770insASV) (P00533 other isoform, or with tags, fused parts or gaps ins ASV behind 769): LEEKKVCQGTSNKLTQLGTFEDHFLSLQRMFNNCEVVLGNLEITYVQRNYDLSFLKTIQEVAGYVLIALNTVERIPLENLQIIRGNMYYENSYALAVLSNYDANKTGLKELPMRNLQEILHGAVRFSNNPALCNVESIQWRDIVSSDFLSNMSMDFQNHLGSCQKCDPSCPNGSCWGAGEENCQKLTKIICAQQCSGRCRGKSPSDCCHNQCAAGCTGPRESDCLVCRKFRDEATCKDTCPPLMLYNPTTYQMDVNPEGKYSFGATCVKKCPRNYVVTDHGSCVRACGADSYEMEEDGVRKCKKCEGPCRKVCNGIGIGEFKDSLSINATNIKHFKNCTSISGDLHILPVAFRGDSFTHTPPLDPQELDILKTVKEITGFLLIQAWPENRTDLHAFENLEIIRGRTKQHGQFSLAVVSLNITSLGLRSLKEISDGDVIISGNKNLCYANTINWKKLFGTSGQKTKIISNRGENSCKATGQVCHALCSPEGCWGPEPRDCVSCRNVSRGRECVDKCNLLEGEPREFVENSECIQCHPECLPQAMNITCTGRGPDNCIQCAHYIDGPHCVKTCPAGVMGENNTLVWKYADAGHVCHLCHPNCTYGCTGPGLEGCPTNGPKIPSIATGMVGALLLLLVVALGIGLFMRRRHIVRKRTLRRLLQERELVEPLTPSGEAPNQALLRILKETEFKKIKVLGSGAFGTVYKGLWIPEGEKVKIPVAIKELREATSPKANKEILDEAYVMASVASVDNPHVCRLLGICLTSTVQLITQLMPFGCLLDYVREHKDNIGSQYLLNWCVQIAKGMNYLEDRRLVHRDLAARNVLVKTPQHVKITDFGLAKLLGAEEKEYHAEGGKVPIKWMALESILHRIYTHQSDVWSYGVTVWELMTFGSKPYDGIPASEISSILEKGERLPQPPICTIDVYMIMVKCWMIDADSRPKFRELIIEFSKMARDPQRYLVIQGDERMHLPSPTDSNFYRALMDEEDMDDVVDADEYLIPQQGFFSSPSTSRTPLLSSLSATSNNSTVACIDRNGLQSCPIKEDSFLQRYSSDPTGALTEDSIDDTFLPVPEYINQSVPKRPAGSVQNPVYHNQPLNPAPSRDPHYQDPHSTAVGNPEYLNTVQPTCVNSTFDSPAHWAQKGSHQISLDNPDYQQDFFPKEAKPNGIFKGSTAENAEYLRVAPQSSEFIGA

SMILES strings stand for the structures. Where only a bound is given, the exact number is not on record here.

Chain of human EGFR L858R and T790M double mutation (LT) (P00533 25-1210 T790M/L858R): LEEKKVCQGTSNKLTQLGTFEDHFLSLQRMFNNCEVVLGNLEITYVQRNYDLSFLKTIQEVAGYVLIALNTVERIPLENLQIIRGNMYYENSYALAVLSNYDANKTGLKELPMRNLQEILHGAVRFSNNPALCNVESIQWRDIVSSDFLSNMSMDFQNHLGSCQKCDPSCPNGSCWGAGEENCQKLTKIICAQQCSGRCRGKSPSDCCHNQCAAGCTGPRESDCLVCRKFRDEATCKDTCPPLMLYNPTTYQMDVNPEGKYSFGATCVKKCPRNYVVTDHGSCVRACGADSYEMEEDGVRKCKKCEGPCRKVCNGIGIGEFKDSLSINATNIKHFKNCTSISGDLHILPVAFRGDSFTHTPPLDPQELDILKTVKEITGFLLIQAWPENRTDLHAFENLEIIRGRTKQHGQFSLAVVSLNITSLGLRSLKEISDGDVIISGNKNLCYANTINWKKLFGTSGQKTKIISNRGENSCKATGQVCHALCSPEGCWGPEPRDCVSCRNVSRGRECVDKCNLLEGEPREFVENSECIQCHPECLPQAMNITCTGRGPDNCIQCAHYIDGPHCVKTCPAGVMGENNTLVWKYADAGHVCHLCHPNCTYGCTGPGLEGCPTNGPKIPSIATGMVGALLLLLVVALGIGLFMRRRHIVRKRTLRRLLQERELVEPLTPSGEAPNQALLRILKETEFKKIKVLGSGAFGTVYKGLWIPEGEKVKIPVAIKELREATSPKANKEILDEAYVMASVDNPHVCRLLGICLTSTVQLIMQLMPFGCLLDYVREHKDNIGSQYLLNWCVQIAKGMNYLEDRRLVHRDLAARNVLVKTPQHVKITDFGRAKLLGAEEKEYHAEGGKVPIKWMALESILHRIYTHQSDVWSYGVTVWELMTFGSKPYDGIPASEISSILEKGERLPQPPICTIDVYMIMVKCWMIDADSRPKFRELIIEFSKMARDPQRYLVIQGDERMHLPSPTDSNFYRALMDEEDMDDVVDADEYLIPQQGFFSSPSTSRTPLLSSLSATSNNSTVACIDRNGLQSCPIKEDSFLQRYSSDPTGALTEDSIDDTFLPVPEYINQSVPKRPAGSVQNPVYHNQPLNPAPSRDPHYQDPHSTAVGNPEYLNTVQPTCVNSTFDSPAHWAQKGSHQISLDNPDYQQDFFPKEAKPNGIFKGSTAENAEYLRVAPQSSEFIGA
Chain of human EGFR exon 20 insertion NPG (H773_V774insNPG) (P00533 with tags, fused parts or gaps INS773NPG limits assumed): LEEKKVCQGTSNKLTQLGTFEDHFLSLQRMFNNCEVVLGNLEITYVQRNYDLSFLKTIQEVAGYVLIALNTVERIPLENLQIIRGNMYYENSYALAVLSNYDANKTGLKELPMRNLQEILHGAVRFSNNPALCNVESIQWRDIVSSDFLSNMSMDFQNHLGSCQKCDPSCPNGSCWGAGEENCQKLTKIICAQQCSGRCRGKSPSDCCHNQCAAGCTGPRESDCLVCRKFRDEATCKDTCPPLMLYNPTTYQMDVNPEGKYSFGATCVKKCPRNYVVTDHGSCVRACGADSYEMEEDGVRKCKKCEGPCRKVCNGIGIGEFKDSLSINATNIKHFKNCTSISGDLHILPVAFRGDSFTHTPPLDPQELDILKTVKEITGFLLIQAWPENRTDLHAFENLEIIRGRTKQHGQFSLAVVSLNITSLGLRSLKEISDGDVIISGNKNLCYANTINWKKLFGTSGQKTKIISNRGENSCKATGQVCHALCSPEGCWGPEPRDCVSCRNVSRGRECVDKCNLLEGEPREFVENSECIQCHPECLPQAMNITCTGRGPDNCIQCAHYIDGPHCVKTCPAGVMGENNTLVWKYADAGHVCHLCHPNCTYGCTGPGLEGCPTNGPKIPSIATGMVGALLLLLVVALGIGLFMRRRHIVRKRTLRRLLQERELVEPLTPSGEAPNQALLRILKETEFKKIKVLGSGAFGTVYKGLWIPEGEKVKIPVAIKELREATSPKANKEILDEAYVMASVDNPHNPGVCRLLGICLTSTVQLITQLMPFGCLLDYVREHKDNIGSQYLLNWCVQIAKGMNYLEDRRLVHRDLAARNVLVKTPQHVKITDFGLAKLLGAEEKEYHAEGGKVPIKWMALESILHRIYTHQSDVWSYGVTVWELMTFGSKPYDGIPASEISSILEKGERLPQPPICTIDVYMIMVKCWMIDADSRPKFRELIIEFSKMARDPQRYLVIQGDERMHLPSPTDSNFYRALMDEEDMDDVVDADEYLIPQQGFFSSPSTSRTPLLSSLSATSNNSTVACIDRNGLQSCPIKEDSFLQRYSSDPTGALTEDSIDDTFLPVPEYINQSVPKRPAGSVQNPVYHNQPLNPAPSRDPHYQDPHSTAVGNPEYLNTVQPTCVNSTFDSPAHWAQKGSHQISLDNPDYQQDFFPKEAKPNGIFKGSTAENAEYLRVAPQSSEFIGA

Turning to `C=CC(=O)Nc1cc(Nc2nccc(-c3c(-c4ccc(OCc5ccccn5)c(Cl)c4)n(C)c4ccccc34)n2)c(OC)cc1N(C)CCN(C)C` [Example 5, N-(5-((4-(2-(3-chloro-4-(pyridin-2-ylmethoxy)phenyl)-1-methyl-1H-indol-3-yl)pyrimidin-2-yl)amino)-2-((2-(dimethylamino)ethyl)(methyl)amino)-4-methoxyphenyl)acrylamide], in experiment [1], the “EGFR exon 21 L858R and T790M mutation IC50” value is “B (Group B compounds have an IC50 value for the indicated mutant between about 100 to about 500 nM)”. The IC50 in experiment [2], in experiment [3] and in experiment [5] was 0.1 to 0.5 µM each time. For the same molecule, the “EGFR exon 19 deletion and T790M mutation IC50” value in experiment [4] is on record as “B (Group B compounds have an IC50 value for the indicated mutant between about 100 to about 500 nM)”.

For the molecule `C=CC(=O)Nc1cc(Nc2nccc(-c3c(-c4ccccc4)n(C)c4ccccc34)n2)c(OC)cc1N(C)CCN(C)C` [Example 7, N-(2-((2-(dimethylamino)ethyl)(methyl)amino)-4-methoxy-5-((4-(1-methyl-2-phenyl-1H-indol-3-yl)pyrimidin-2-yl)amino)phenyl)acrylamide], the IC50 (usually the point on the concentration scale where inhibition reaches its midpoint) is less than 0.1 µM in experiment [1]; less than 0.1 µM in experiment [2]; 0.1 to 0.5 µM in experiment [3]; less than 0.1 µM in experiment [4]; 0.1 to 0.5 µM in experiment [5].

In the case of `C=CC(=O)Nc1cc(Nc2ncc(C(=O)OCC)c(-c3cn(C)c4ccccc34)n2)c(OC)cc1N(C)CCN(C)C` [Example 9, ethyl 2-((5-acrylamido-4-((2-(dimethylamino)ethyl)(methyl)amino)-2-methoxyphenyl)amino)-4-(1-methyl-1H-indol-3-yl)pyrimidine-5-carboxylate], the IC50 in experiment [1], in experiment [2], in experiment [3], in experiment [4] and in experiment [5] was less than 0.1 µM each time.

On to `C=CC(=O)Nc1cc(Nc2ncc(C(=O)OC(C)C)c(-c3cn(C)c4ccccc34)n2)c(OC)cc1N(C)CCN(C)C` [Example 10, isopropyl 2-((5-acrylamido-4-((2-(dimethylamino)ethyl)(methyl)amino)-2-methoxyphenyl)amino)-4-(1-methyl-1H-indol-3-yl)pyrimidine-5-carboxylate], for which the IC50 in experiment [1], in experiment [2], in experiment [3], in experiment [4] and in experiment [5] was less than 0.1 µM throughout.

With `C=CC(=O)Nc1cc(Nc2ncc(C(=O)OC(C)C)c(-c3cn(C)c4ccccc34)n2)c(OC)cc1N(C)CC1CCCN1C` (centres unmarked) [Example 17, isopropyl 2-((5-acrylamido-2-methoxy-4-(methyl((1-methylpyrrolidin-2-yl)methyl)amino)phenyl)amino)-4-(1-methyl-1H-indol-3-yl)pyrimidine-5-carboxylate], the IC50 in experiment [1], in experiment [2], in experiment [3], in experiment [4] and in experiment [5] was less than 0.1 µM each time.

As for `C=CC(=O)Nc1cc(Nc2ncc(C(=O)OC(C)C)c(-c3c[nH]c4ccccc34)n2)c(OC)cc1N(C)CCN(C)C` [Example 30, isopropyl 2-((5-acrylamido-4-((2-(dimethylamino)ethyl)(methyl)amino)-2-methoxyphenyl)amino)-4-(1H-indol-3-yl)pyrimidine-5-carboxylate], the IC50 in experiment [1], in experiment [2], in experiment [3], in experiment [4] and in experiment [5] was less than 0.1 µM in each case.

For `C=CC(=O)Nc1cc(Nc2ncc(C(=O)OC(C)C)c(-c3cn(C)c4ncccc34)n2)c(OC)cc1N(C)CCN(C)C` [Example 34, isopropyl 2-((5-acrylamido-4-((2-(dimethylamino)ethyl)(methyl)amino)-2-methoxyphenyl)amino)-4-(1-methyl-1H-pyrrolo[2,3-b]pyridin-3-yl)pyrimidine-5-carboxylate], the IC50 in experiment [1], in experiment [2], in experiment [3], in experiment [4] and in experiment [5] was less than 0.1 µM throughout.

Regarding `C=CC(=O)Nc1cc(Nc2ncc(C(=O)OC(C)C)c(-c3cn(C)c4ccccc34)n2)c(OC)cc1N(C)C[C@@H]1CCCN1C` [Example 35, (S)-isopropyl 2-((5-acrylamido-2-methoxy-4-(methyl((1-methylpyrrolidin-2-yl)methyl)amino)phenyl)amino)-4-(1-methyl-1H-indol-3-yl)pyrimidine-5-carboxylate], the IC50 in experiment [1], in experiment [2], in experiment [3], in experiment [4] and in experiment [5] was less than 0.1 µM in each case.

Regarding `C=CC(=O)Nc1cc(Nc2ncc(C(=O)OC(C)C)c(-c3cn(C)c4ccccc34)n2)c(OC)cc1N(C)C[C@H]1CCCN1C` [Example 36, (R)-isopropyl 2-((5-acrylamido-2-methoxy-4-(methyl((1-methylpyrrolidin-2-yl)methyl)amino)phenyl)amino)-4-(1-methyl-1H-indol-3-yl)pyrimidine-5-carboxylate], the IC50 in experiment [1], in experiment [2], in experiment [3], in experiment [4] and in experiment [5] was less than 0.1 µM throughout.

For `C=CC(=O)Nc1cc(Nc2ncc(Cl)c(-c3cnn4ccccc34)n2)c(OC)cc1N(C)CCN(C)C` [Example 52, N-(5-((5-chloro-4-(pyrazolo[1,5-a]pyridin-3-yl)pyrimidin-2-yl)amino)-2-((2-(dimethylamino)ethyl)-(methyl)amino)-4-methoxyphenyl)-acrylamide], the IC50 was less than 0.1 µM in experiment [1]; less than 0.1 µM in experiment [2]; 0.1 to 0.5 µM in experiment [3]; less than 0.1 µM in experiment [4]; less than 0.1 µM in experiment [5].

As to `C=CC(=O)Nc1cc(Nc2ncc(Cl)c(-c3c[nH]c4ccccc34)n2)c(OC)cc1N(C)CCN(C)C` [Example 56, N-(5-((5-chloro-4-(1H-indol-3-yl)pyrimidin-2-yl)amino)-2-((2-(dimethylamino)ethyl)(methyl)amino)-4-methoxyphenyl)acrylamide], the IC50 in experiment [1], in experiment [2], in experiment [3], in experiment [4] and in experiment [5] was less than 0.1 µM in each case.

For `C=CC(=O)Nc1cc(Nc2ncc(C(=O)OC(C)C)c(-c3cn(C)c4ccccc34)n2)c(OC)cc1N(C)CCNC` [Example 58, isopropyl 2-((5-acrylamido-2-methoxy-4-(methyl(2-(methylamino)ethyl)-amino)phenyl)amino)-4-(1-methyl-1H-indol-3-yl)pyrimidine-5-carboxylate], the IC50 in experiment [1], in experiment [2], in experiment [3], in experiment [4] and in experiment [5] was less than 0.1 µM each time.

Turning to `C=CC(=O)Nc1cc(Nc2ncc(C(=O)OC(C)C)c(-c3c[nH]c4ncccc34)n2)c(OC)cc1N(C)CCN(C)C` [Example 66, isopropyl 2-((5-acrylamido-4-((2-(dimethylamino)ethyl)(methyl)amino)-2-methoxyphenyl)amino)-4-(1H-pyrrolo[2,3-b]pyridin-3-yl)pyrimidine-5-carboxylate], the half-maximal inhibitory concentration (IC50) in experiment [1], in experiment [2], in experiment [3], in experiment [4] and in experiment [5] was less than 0.1 µM throughout.

On to `C=CC(=O)Nc1cc(Nc2ncc(C(=O)OC(C)C)c(-c3cn(C)c4ccccc34)n2)c(OC)cc1OCCN(C)C` [Example 67, isopropyl 2-((5-acrylamido-4-(2-(dimethylamino)ethoxy)-2-methoxyphenyl)amino)-4-(1-methyl-1H-indol-3-yl)pyrimidine-5-carboxylate], for which the IC50 in experiment [1], in experiment [2], in experiment [3], in experiment [4] and in experiment [5] was less than 0.1 µM each time.

`C=CC(=O)Nc1cc(Nc2ncc(C(=O)OC(C)C)c(-c3cn(C)c4ccccc34)n2)c(OC)cc1N(C)C[C@@H]1CCCN1` [Example 73]: the IC50 in experiment [1], in experiment [2], in experiment [3], in experiment [4] and in experiment [5] was less than 0.1 µM throughout.

As for `C=CC(=O)Nc1cc(Nc2ncc(C(=O)OC(C)C)c(-c3cn(C)c4ncccc34)n2)c(OC)cc1N(C)CCNC` [Example 74, isopropyl 2-((5-acrylamido-2-methoxy-4-(methyl(2-(methylamino)ethyl)amino)phenyl)amino)-4-(1-methyl-1H-pyrrolo[2,3-b]pyridin-3-yl)pyrimidine-5-carboxylate], the “EGFR exon 21 L858R and T790M mutation IC50” value in experiment [1] is given as “B (Group B compounds have an IC50 value for the indicated mutant between about 100 to about 500 nM)”. Moreover, the IC50 in experiment [2] was less than 0.1 µM; in experiment [3] it was 0.1 to 0.5 µM; in experiment [4], less than 0.1 µM; in experiment [5], less than 0.1 µM.

For the origin of these results see patent US10227342B2 (ARIAD PHARMACEUTICALS, INC., priority 2014, dated 2019).
